PubChem BioAssay AID256 (DTP/NCI, 2004)
Inconclusive results and toxic doses are left out. How the source made its calls: active means survival T/C of 150% or more; inactive means T/C below 125% in these data.

Test system: CD2F1 mice, L1210 leukemia ip, survival T/C
Assay: NCI In Vivo Anticancer Drug Screen. Data for tumor model L1210 Leukemia (intraperitoneal) in CD2F1 (CDF1) mice
Conditions: higher = longer survival
Method in brief: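 In this screen, transplantable tumors were grown in mice given either the compound or its vehicle. Results were expressed as the treated measurement relative to the control measurement.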

[1] = endpoint: mean survival time, dose: 12.5 mg/kg/injection, schedule: Q01DX009 (ip), vehicle: water
[2] = endpoint: mean survival time, dose: 25.0 mg/kg/injection, schedule: Q01DX009 (ip), vehicle: water
[3] = endpoint: mean survival time, dose: 50.0 mg/kg/injection, schedule: Q01DX009 (ip), vehicle: water
[4] = endpoint: mean survival time, dose: 100.0 mg/kg/injection, schedule: Q01DX009 (ip), vehicle: water
[5] = endpoint: mean survival time, dose: 200.0 mg/kg/injection, schedule: Q01DX009 (ip), vehicle: water

Measured: T/C

CCN(CC)Cc1ccc([NH-])c([NH-])c1.CCN(CC)Cc1ccc([NH-])c([NH-])c1.[Cl][Pt+2][Cl].[Cl][Pt+2][Cl].[Cl][Pt+2][Cl]
inactive: endpoint: mean survival time, dose: 3.13 mg/kg/injection, schedule: Q04DX003 (ip), vehicle: water 103 % of control | endpoint: mean survival time, dose: 6.25 mg/kg/injection, schedule: Q04DX003 (ip), vehicle: water 108 % of control | endpoint: mean survival time, dose: 12.5 mg/kg/injection, schedule: Q04DX003 (ip), vehicle: water 110 % of control | endpoint: mean survival time, dose: 25.0 mg/kg/injection, schedule: Q04DX003 (ip), vehicle: water 119 % of control | endpoint: mean survival time, dose: 50.0 mg/kg/injection, schedule: Q04DX003 (ip), vehicle: water 89 % of control

CCCCCCCCCCCCC[n+]1ccc(C#N)cc1
inactive: endpoint: mean survival time, dose: 7.5 mg/kg/injection, schedule: Q01DX001 (ip), vehicle: saline 102 % of control | endpoint: mean survival time, dose: 7.5 mg/kg/injection, schedule: Q01DX009 (ip), vehicle: saline 107 % of control | endpoint: mean survival time, dose: 15.0 mg/kg/injection, schedule: Q01DX001 (ip), vehicle: saline 94 % of control | endpoint: mean survival time, dose: 15.0 mg/kg/injection, schedule: Q01DX009 (ip), vehicle: saline 101 % of control | endpoint: mean survival time, dose: 30.0 mg/kg/injection, schedule: Q01DX001 (ip), vehicle: saline 97 % of control

c1ccc([P+](c2ccccc2)(c2ccccc2)C2CCC2)cc1
inactive: endpoint: mean survival time, dose: 9.4 mg/kg/injection, schedule: Q04DX003 (ip), vehicle: saline 97 % of control | endpoint: mean survival time, dose: 18.8 mg/kg/injection, schedule: Q04DX003 (ip), vehicle: saline 102 % of control | endpoint: mean survival time, dose: 37.5 mg/kg/injection, schedule: Q04DX003 (ip), vehicle: saline 102 % of control

O=C(NCCCl)NC1C(O)OC(CO)C(O)C1O (stereo not given)
inactive: [1] 107 % of control | [2] 107 % of control | [3] 104 % of control | [4] 104 % of control | [5] 105 % of control

CCOc1ccc(-n2c(O)c(N=Nc3ccccc3)c(=O)n(-c3ccc(OC)cc3)c2=S)cc1
inactive: endpoint: mean survival time, dose: 100.0 mg/kg/injection, schedule: Q01DX001 (ip), vehicle: saline with Tween-80 101 % of control | endpoint: mean survival time, dose: 200.0 mg/kg/injection, schedule: Q01DX001 (ip), vehicle: saline with Tween-80 92 % of control | endpoint: mean survival time, dose: 400.0 mg/kg/injection, schedule: Q01DX001 (ip), vehicle: saline with Tween-80 90 % of control

N#CN(Cc1ccc(Cl)cc1Cl)C(=O)OCOc1ccc(Cl)cc1
inactive: endpoint: mean survival time, dose: 100.0 mg/kg/injection, schedule: Q04DX003 (ip), vehicle: saline with Tween-80 88 % of control | endpoint: mean survival time, dose: 200.0 mg/kg/injection, schedule: Q04DX003 (ip), vehicle: saline with Tween-80 89 % of control | endpoint: mean survival time, dose: 400.0 mg/kg/injection, schedule: Q04DX003 (ip), vehicle: saline with Tween-80 96 % of control

Cc1c([O-])[n+](Cc2ccccc2)nn1C
inactive: [1] 97 % of control | [2] 98 % of control | [3] 95 % of control | [4] 97 % of control | [5] 93 % of control

CC(C)C(C)/C=C\C(C)C1CCC2C3=CC=C4CC(OC(=O)c5ccccc5)CCC4(C)C3=CCC21C (stereo not given)
inactive: endpoint: mean survival time, dose: 50.0 mg/kg/injection, schedule: Q01DX009 (ip), vehicle: Klucel (hydroxypropylcellulose) (HPC) 93 % of control | endpoint: mean survival time, dose: 100.0 mg/kg/injection, schedule: Q01DX009 (ip), vehicle: Klucel (hydroxypropylcellulose) (HPC) 110 % of control | endpoint: mean survival time, dose: 200.0 mg/kg/injection, schedule: Q01DX009 (ip), vehicle: Klucel (hydroxypropylcellulose) (HPC) 96 % of control

COc1ccc(Cc2nccc3cc(OC)c(OC)cc23)cc1OC
inactive: endpoint: mean survival time, dose: 9.4 mg/kg/injection, schedule: Q04DX003 (ip), vehicle: water 115 % of control | endpoint: mean survival time, dose: 18.7 mg/kg/injection, schedule: Q04DX003 (ip), vehicle: water 93 % of control | endpoint: mean survival time, dose: 37.5 mg/kg/injection, schedule: Q04DX003 (ip), vehicle: water 96 % of control | [3] 96 % of control

[CH3][Sb]([CH3])([CH3])([O]C(=O)CF)[O]C(=O)CF
inactive: endpoint: mean survival time, dose: 1.25 mg/kg/injection, schedule: Q01DX009 (ip), vehicle: saline 102 % of control | endpoint: mean survival time, dose: 2.5 mg/kg/injection, schedule: Q01DX009 (ip), vehicle: saline 100 % of control | endpoint: mean survival time, dose: 5.0 mg/kg/injection, schedule: Q01DX009 (ip), vehicle: saline 106 % of control

CC(C)(C)C(=O)CC(O)(C(F)(F)F)C(F)(F)F
inactive: endpoint: mean survival time, dose: 100.0 mg/kg/injection, schedule: Q04DX003 (ip), vehicle: saline 100 % of control | endpoint: mean survival time, dose: 200.0 mg/kg/injection, schedule: Q04DX003 (ip), vehicle: saline 97 % of control | endpoint: mean survival time, dose: 400.0 mg/kg/injection, schedule: Q04DX003 (ip), vehicle: saline 100 % of control

Cc1ccc(N/N=C/C(=O)O)cc1
inactive: endpoint: mean survival time, dose: 12.5 mg/kg/injection, schedule: Q04DX003 (ip), vehicle: other 101 % of control | endpoint: mean survival time, dose: 25.0 mg/kg/injection, schedule: Q04DX003 (ip), vehicle: other 101 % of control | endpoint: mean survival time, dose: 50.0 mg/kg/injection, schedule: Q04DX003 (ip), vehicle: other 97 % of control | endpoint: mean survival time, dose: 100.0 mg/kg/injection, schedule: Q04DX003 (ip), vehicle: other 95 % of control | endpoint: mean survival time, dose: 400.0 mg/kg/injection, schedule: Q04DX003 (ip), vehicle: other 94 % of control

CC(CC(=O)O)C(NC(=O)OCc1ccccc1)C(=O)O (stereo not given)
inactive: endpoint: mean survival time, dose: 75.0 mg/kg/injection, schedule: Q04DX003 (ip), vehicle: saline 101 % of control | endpoint: mean survival time, dose: 150.0 mg/kg/injection, schedule: Q04DX003 (ip), vehicle: saline 95 % of control | endpoint: mean survival time, dose: 300.0 mg/kg/injection, schedule: Q04DX003 (ip), vehicle: saline 95 % of control

CCS(=O)(=O)CCNCCS(=O)(=O)CC
inactive: endpoint: mean survival time, dose: 100.0 mg/kg/injection, schedule: Q04DX002 (ip), vehicle: saline with Tween-80 104 % of control | endpoint: mean survival time, dose: 200.0 mg/kg/injection, schedule: Q04DX002 (ip), vehicle: saline with Tween-80 93 % of control | endpoint: mean survival time, dose: 400.0 mg/kg/injection, schedule: Q04DX002 (ip), vehicle: saline with Tween-80 104 % of control

O=C(CC(=O)CC(O)(C(F)(F)F)C(F)(F)F)CC(O)(C(F)(F)F)C(F)(F)F
inactive: endpoint: mean survival time, dose: 5.0 mg/kg/injection, schedule: Q04DX003 (ip), vehicle: saline 100 % of control | endpoint: mean survival time, dose: 10.0 mg/kg/injection, schedule: Q04DX003 (ip), vehicle: saline 96 % of control

CN(C)C1c2cc(Br)ccc2-c2ccc(Br)cc21
inactive: endpoint: mean survival time, dose: 50.0 mg/kg/injection, schedule: Q01DX001 (ip), vehicle: carboxymethylcellulose (CMC) 101 % of control | endpoint: mean survival time, dose: 100.0 mg/kg/injection, schedule: Q01DX001 (ip), vehicle: carboxymethylcellulose (CMC) 101 % of control | endpoint: mean survival time, dose: 200.0 mg/kg/injection, schedule: Q01DX001 (ip), vehicle: carboxymethylcellulose (CMC) 104 % of control | endpoint: mean survival time, dose: 400.0 mg/kg/injection, schedule: Q01DX001 (ip), vehicle: carboxymethylcellulose (CMC) 104 % of control

COc1ccc(/C=C(/C(=O)O)c2ccc(OC)cc2)cc1
inactive: endpoint: mean survival time, dose: 100.0 mg/kg/injection, schedule: Q01DX009 (ip), vehicle: other 98 % of control | endpoint: mean survival time, dose: 200.0 mg/kg/injection, schedule: Q01DX009 (ip), vehicle: other 102 % of control | endpoint: mean survival time, dose: 400.0 mg/kg/injection, schedule: Q01DX009 (ip), vehicle: other 98 % of control

O=c1[nH]c(=O)n2c3c1nnn3CC1OC2C(O)C1O (stereo not given)
inactive: endpoint: mean survival time, dose: 12.5 mg/kg/injection, schedule: Q01DX005 (ip), vehicle: water 93 % of control | endpoint: mean survival time, dose: 25.0 mg/kg/injection, schedule: Q01DX005 (ip), vehicle: water 93 % of control | endpoint: mean survival time, dose: 50.0 mg/kg/injection, schedule: Q01DX005 (ip), vehicle: water 95 % of control | endpoint: mean survival time, dose: 100.0 mg/kg/injection, schedule: Q01DX005 (ip), vehicle: water 89 % of control | endpoint: mean survival time, dose: 200.0 mg/kg/injection, schedule: Q01DX005 (ip), vehicle: water 95 % of control

COc1cn(C2OC(CO)C(O)C2O)c(=O)nc1N (stereo not given)
inactive: endpoint: median survival time, dose: 25.0 mg/kg/injection, schedule: Q01DX005 (ip), vehicle: saline 114 % of control | endpoint: median survival time, dose: 50.0 mg/kg/injection, schedule: Q01DX005 (ip), vehicle: saline 111 % of control | endpoint: median survival time, dose: 100.0 mg/kg/injection, schedule: Q01DX005 (ip), vehicle: saline 114 % of control
